Measurements: the NIST ThermoML archive (doi:10.1016/j.jct.2015.01.004)
Where “and” joins values, the source holds several entries; their conditions need not be identical. Equal entries are not always repeated.

Test: molar heat capacity at constant pressure; xn = mol fraction of the nth substance listed
Settings: 100 kPa

[Si] [silicon] + [Li]
Settings	molar heat capacity at constant pressure
298.15 K, Crystal of intercomponent compound 2, relaxation calorimetry + DSC, x2 = 0.804	22.75 J/K/mol
298.32 K, Crystal of intercomponent compound 1, relaxation calorimetry, x2 = 0.81	21.66 J/K/mol
298.33 K, Crystal of intercomponent compound 2, relaxation calorimeter, x2 = 0.804	22.58 J/K/mol
300 K, Crystal of intercomponent compound 1, relaxation calorimetry + DSC, x2 = 0.81	22.58 J/K/mol
300 K, Crystal of intercomponent compound 2, relaxation calorimetry + DSC, x2 = 0.804	22.79 J/K/mol
302.31 K, Crystal of intercomponent compound 1, relaxation calorimetry, x2 = 0.81	21.75 J/K/mol
302.34 K, Crystal of intercomponent compound 2, relaxation calorimeter, x2 = 0.804	22.69 J/K/mol
304.67 K, Crystal of intercomponent compound 2, Small sample (50 mg) DSC, x2 = 0.804	23.11 J/K/mol and 23.16 J/K/mol
304.7 K, Crystal of intercomponent compound 1, Small sample (50 mg) DSC, x2 = 0.81	22.87 J/K/mol and 22.84 J/K/mol
304.7 K, Crystal of intercomponent compound 2, Small sample (50 mg) DSC, x2 = 0.804	23.05 J/K/mol
304.87 K, Crystal of intercomponent compound 1, Small sample (50 mg) DSC, x2 = 0.81	22.81 J/K/mol
304.88 K, Crystal of intercomponent compound 1, Small sample (50 mg) DSC, x2 = 0.81	22.77 J/K/mol
314.59 K, Crystal of intercomponent compound 2, Small sample (50 mg) DSC, x2 = 0.804	23.41 J/K/mol and 23.55 J/K/mol
314.61 K, Crystal of intercomponent compound 1, Small sample (50 mg) DSC, x2 = 0.81	23.01 J/K/mol and 23.1 J/K/mol
314.61 K, Crystal of intercomponent compound 2, Small sample (50 mg) DSC, x2 = 0.804	23.42 J/K/mol
314.8 K, Crystal of intercomponent compound 1, Small sample (50 mg) DSC, x2 = 0.81	22.99 J/K/mol
314.81 K, Crystal of intercomponent compound 1, Small sample (50 mg) DSC, x2 = 0.81	22.91 J/K/mol
320 K, Crystal of intercomponent compound 1, relaxation calorimetry + DSC, x2 = 0.81	23.07 J/K/mol
320 K, Crystal of intercomponent compound 2, relaxation calorimetry + DSC, x2 = 0.804	23.22 J/K/mol
324.51 K, Crystal of intercomponent compound 2, Small sample (50 mg) DSC, x2 = 0.804	23.8 J/K/mol and 23.85 J/K/mol
324.52 K, Crystal of intercomponent compound 1, Small sample (50 mg) DSC, x2 = 0.81	23.19 J/K/mol and 23.22 J/K/mol
324.52 K, Crystal of intercomponent compound 2, Small sample (50 mg) DSC, x2 = 0.804	23.8 J/K/mol
324.71 K, Crystal of intercomponent compound 1, Small sample (50 mg) DSC, x2 = 0.81	23.19 J/K/mol
324.72 K, Crystal of intercomponent compound 1, Small sample (50 mg) DSC, x2 = 0.81	23.11 J/K/mol
334.42 K, Crystal of intercomponent compound 2, Small sample (50 mg) DSC, x2 = 0.804	24.09 J/K/mol and 24.14 J/K/mol
334.43 K, Crystal of intercomponent compound 2, Small sample (50 mg) DSC, x2 = 0.804	24.12 J/K/mol
334.44 K, Crystal of intercomponent compound 1, Small sample (50 mg) DSC, x2 = 0.81	23.32 J/K/mol and 23.34 J/K/mol
334.63 K, Crystal of intercomponent compound 1, Small sample (50 mg) DSC, x2 = 0.81	23.4 J/K/mol
334.64 K, Crystal of intercomponent compound 1, Small sample (50 mg) DSC, x2 = 0.81	23.38 J/K/mol
340 K, Crystal of intercomponent compound 1, relaxation calorimetry + DSC, x2 = 0.81	23.51 J/K/mol
340 K, Crystal of intercomponent compound 2, relaxation calorimetry + DSC, x2 = 0.804	23.65 J/K/mol
344.33 K, Crystal of intercomponent compound 2, Small sample (50 mg) DSC, x2 = 0.804	24.3 J/K/mol and 24.38 J/K/mol
344.35 K, Crystal of intercomponent compound 1, Small sample (50 mg) DSC, x2 = 0.81	23.65 J/K/mol and 23.63 J/K/mol
344.35 K, Crystal of intercomponent compound 2, Small sample (50 mg) DSC, x2 = 0.804	24.37 J/K/mol
344.54 K, Crystal of intercomponent compound 1, Small sample (50 mg) DSC, x2 = 0.81	23.6 J/K/mol
344.55 K, Crystal of intercomponent compound 1, Small sample (50 mg) DSC, x2 = 0.81	23.53 J/K/mol
354.24 K, Crystal of intercomponent compound 2, Small sample (50 mg) DSC, x2 = 0.804	24.56 J/K/mol and 24.6 J/K/mol
354.26 K, Crystal of intercomponent compound 1, Small sample (50 mg) DSC, x2 = 0.81	23.98 J/K/mol and 23.97 J/K/mol
354.26 K, Crystal of intercomponent compound 2, Small sample (50 mg) DSC, x2 = 0.804	24.57 J/K/mol
354.45 K, Crystal of intercomponent compound 1, Small sample (50 mg) DSC, x2 = 0.81	23.8 J/K/mol
354.46 K, Crystal of intercomponent compound 1, Small sample (50 mg) DSC, x2 = 0.81	23.72 J/K/mol
360 K, Crystal of intercomponent compound 1, relaxation calorimetry + DSC, x2 = 0.81	23.91 J/K/mol
360 K, Crystal of intercomponent compound 2, relaxation calorimetry + DSC, x2 = 0.804	24.08 J/K/mol
364.16 K, Crystal of intercomponent compound 2, Small sample (50 mg) DSC, x2 = 0.804	24.81 J/K/mol and 24.83 J/K/mol
364.17 K, Crystal of intercomponent compound 1, Small sample (50 mg) DSC, x2 = 0.81	24.15 J/K/mol and 24.13 J/K/mol
364.17 K, Crystal of intercomponent compound 2, Small sample (50 mg) DSC, x2 = 0.804	24.69 J/K/mol
364.36 K, Crystal of intercomponent compound 1, Small sample (50 mg) DSC, x2 = 0.81	24.02 J/K/mol
364.37 K, Crystal of intercomponent compound 1, Small sample (50 mg) DSC, x2 = 0.81	23.91 J/K/mol
374.07 K, Crystal of intercomponent compound 2, Small sample (50 mg) DSC, x2 = 0.804	24.83 J/K/mol and 24.87 J/K/mol and 24.94 J/K/mol
374.08 K, Crystal of intercomponent compound 1, Small sample (50 mg) DSC, x2 = 0.81	24.33 J/K/mol and 24.27 J/K/mol
374.28 K, Crystal of intercomponent compound 1, Small sample (50 mg) DSC, x2 = 0.81	24.24 J/K/mol and 24.13 J/K/mol
380 K, Crystal of intercomponent compound 1, relaxation calorimetry + DSC, x2 = 0.81	24.29 J/K/mol
380 K, Crystal of intercomponent compound 2, relaxation calorimetry + DSC, x2 = 0.804	24.51 J/K/mol
383.99 K, Crystal of intercomponent compound 2, Small sample (50 mg) DSC, x2 = 0.804	25.05 J/K/mol
384.19 K, Crystal of intercomponent compound 1, Small sample (50 mg) DSC, x2 = 0.81	24.35 J/K/mol
384.2 K, Crystal of intercomponent compound 1, Small sample (50 mg) DSC, x2 = 0.81	24.46 J/K/mol
393.9 K, Crystal of intercomponent compound 2, Small sample (50 mg) DSC, x2 = 0.804	25.16 J/K/mol and 25.27 J/K/mol
394.11 K, Crystal of intercomponent compound 1, Small sample (50 mg) DSC, x2 = 0.81	24.46 J/K/mol
394.12 K, Crystal of intercomponent compound 1, Small sample (50 mg) DSC, x2 = 0.81	24.68 J/K/mol
400 K, Crystal of intercomponent compound 1, relaxation calorimetry + DSC, x2 = 0.81	24.63 J/K/mol
400 K, Crystal of intercomponent compound 2, relaxation calorimetry + DSC, x2 = 0.804	24.94 J/K/mol
403.81 K, Crystal of intercomponent compound 2, Small sample (50 mg) DSC, x2 = 0.804	25.3 J/K/mol and 25.35 J/K/mol
404.02 K, Crystal of intercomponent compound 1, Small sample (50 mg) DSC, x2 = 0.81	24.57 J/K/mol
404.03 K, Crystal of intercomponent compound 1, Small sample (50 mg) DSC, x2 = 0.81	25.01 J/K/mol
413.73 K, Crystal of intercomponent compound 2, Small sample (50 mg) DSC, x2 = 0.804	25.46 J/K/mol and 25.49 J/K/mol
413.94 K, Crystal of intercomponent compound 1, Small sample (50 mg) DSC, x2 = 0.81	24.68 J/K/mol and 25.12 J/K/mol
420 K, Crystal of intercomponent compound 1, relaxation calorimetry + DSC, x2 = 0.81	24.96 J/K/mol
420 K, Crystal of intercomponent compound 2, relaxation calorimetry + DSC, x2 = 0.804	25.37 J/K/mol
423.64 K, Crystal of intercomponent compound 2, Small sample (50 mg) DSC, x2 = 0.804	25.57 J/K/mol and 25.65 J/K/mol
423.85 K, Crystal of intercomponent compound 1, Small sample (50 mg) DSC, x2 = 0.81	24.68 J/K/mol
423.86 K, Crystal of intercomponent compound 1, Small sample (50 mg) DSC, x2 = 0.81	25.12 J/K/mol
433.56 K, Crystal of intercomponent compound 2, Small sample (50 mg) DSC, x2 = 0.804	25.68 J/K/mol and 25.75 J/K/mol
433.76 K, Crystal of intercomponent compound 1, Small sample (50 mg) DSC, x2 = 0.81	25.01 J/K/mol
433.77 K, Crystal of intercomponent compound 1, Small sample (50 mg) DSC, x2 = 0.81	25.23 J/K/mol
440 K, Crystal of intercomponent compound 1, relaxation calorimetry + DSC, x2 = 0.81	25.28 J/K/mol
440 K, Crystal of intercomponent compound 2, relaxation calorimetry + DSC, x2 = 0.804	25.8 J/K/mol
443.48 K, Crystal of intercomponent compound 2, Small sample (50 mg) DSC, x2 = 0.804	25.83 J/K/mol and 25.95 J/K/mol
443.67 K, Crystal of intercomponent compound 1, Small sample (50 mg) DSC, x2 = 0.81	25.01 J/K/mol
443.69 K, Crystal of intercomponent compound 1, Small sample (50 mg) DSC, x2 = 0.81	25.56 J/K/mol
453.39 K, Crystal of intercomponent compound 2, Small sample (50 mg) DSC, x2 = 0.804	25.96 J/K/mol and 26.21 J/K/mol
453.59 K, Crystal of intercomponent compound 1, Small sample (50 mg) DSC, x2 = 0.81	25.01 J/K/mol
